According to US11920125B2, “Methods and agricultural compositions for preventing or controlling plant diseases” (Tenfold Technologies, LLC, priority 2017, dated 2024):

Assays:
R. solani = test: Pot assay, microbial drench treatments on Ozark soybean seedlings in pots infested with R. solani; assay type: in vivo; conditions: chemical control at 0.06 g/lb of soybean seeds
Experimental: In pot assays, WB or its dilutions were applied as a seed coating or as a a simulated in-furrow application in pots containing soil inoculated with the pathogen. Measurements of the percent of emergence, plant growth stage, and disease rating were used to assess biocontrol efficacy. Whole broth (WB) or WB dilutions were applied either as a simulated in-furrow treatment or a seed treatment applied to soybean seed. For simulated in-furrow application, 1 ml of biocontrol treatment or negative and positive controls was pipetted over the seed placed in 0.5 cm deep depressions made in peat-lite mix potting medium inoculated with the pathogen and prior to covering with the potting medium. Seed treatments were applied by coating soybean seed with the biocontrol and control treatments prior to planting into an inoculated potting medium. The negative control was reverse osmosis-purified (RO) water applied to seed in inoculated pots. The positive controls were Satori® (azoxystrobin) and Subtilex® (Bacillus subtilis strain MBI 600) applied at the labelled rates. In addition, a mock-inoculated treatment without pathogen inoculation was included in each test. Inoculation was done by thoroughly mixing 1 L of a slurry, made by blending two fully Rhizoctonia solani-colonized potato dextrose cultures in 200 ml RO water, with 4 L peat-lite mix (e.g., Sunshine LC1 potting mix) using a cement mixer. Experimental units were five seeds per pot and the treatments were arranged in a completely random design with four replicates. The tests were conducted on light carts illuminated with LED lamps (16 hour day/8 hour night) for 7-10 days at 26-28° C. The pots were irrigated as needed with RO water. Measurements of the percent emergence, plant growth stage (Munger, et al., 2008), and disease severity rating (0, no disease, to 5, dead plant) were collected from each plant at the end of each test, and the means of the experimental units were analyzed using JMP version 11 (SAS, Cary, NC).
In a separate pot assay, treatments were applied directly as a drench.

Rhizoctonia = Rhizoctonia control field trial, soybean seed treatment, Fisher, Indiana; conditions: isolates (GB6-M) 20 μl WB/Seed; Fludioxonil 0.02 mg/Seed
Experimental: For all treatments, the target concentration is 20 μl water/seed, which corresponds to 60 ml/460 g seeds. Sixty (60) ml liquid was added to every 460 g soybean seeds for a total of six times. Each time, 10 ml of liquid was added to the 460 g seeds and mixed for 15 seconds. Coated seeds were dried for 5-10 minutes under ventilation between the additions. Final coated seeds were dried overnight in a biocontainment hood.

Pythium irregulare = test: Pot assay, bacterial isolates with or without fungicide Satori for control of Pythium irregulare on soybean; assay type: in vivo
Experimental: In order to test the performance of bacterial isolates, with or without the presence of the fungicide Satori® (active ingredient is azoxystrobin), samples were applied as simulated in-furrow by pipetting in 1 ml over each seed after the seeds were placed in a 1 cm deep depression. The combination was prepared by combining each bacterial whole broth (MS1479, MS2379, MS2414, or MS2820) (which was grown in GB6-M8) with an equal volume (1:1) of Satori®. The agar slurry inoculation method was used after blending two agar cultures of P. irregulare in 200 ml RO water and then mixed with 4 L of peat-lite mix in a cement mixer. Five soybean seeds (genotype WS2620) were sown in each pot with 1 ml treatment over each seed (in-furrow simulation). Then the pots were incubated at 16° C. for 1 week and then 23° C. for another week before evaluation. The disease severity scale: 1=80-100%, 2=60-79%, 3=40-59%, 4=20-39%, 5=1-19%, and 6=0% damaged roots. (Table 16).

## N#Cc1c[nH]cc1-c1cccc2c1OC(F)(F)O2 [Fludioxonil]
R. solani; 0 = no disease to 5 = plant dead, 7 days
  Disease Rating: 3.0^F
R. solani; 7 days after sowing, of four seeds per pot
  # Emerged Plants: 2.0^B
R. solani; scale 1-4, 7 days
  Plant Growth Stage: 2.2^B
Rhizoctonia
  Stand (No of plants per acre) at 11 DAP: 2614 plants per acre
  Stand (No of plants per acre) at 16 DAP: 20038 plants per acre
  Stand (No of plants per acre) at 49 DAP: 16939 plants per acre
  Total # Diseased per plot (187.5 ft^2 per plot area): 7.3
  Vigor Rating (1-5: 1 = worst, 5 = best): 1.8

## COCC(=O)N(c1c(C)cccc1C)C(C)C(=O)OC (centres unmarked) [Metalaxyl]
Pythium irregulare; five soybean seeds per pot, 1 ml treatment over each seed
  Plant development: 12.55
Pythium irregulare; five soybean seeds per pot, 1 ml treatment over each seed, 16° C. 1 week then 23° C. 1 week
  Plant emergence: 5
Pythium irregulare; scale 1=80-100%, 2=60-79%, 3=40-59%, 4=20-39%, 5=1-19%, 6=0% damaged roots (higher = healthier)
  Disease severity: 4.35
